The values below are quoted from earlier work in patent US7901914B2, “Microbiological method of the biosynthesis of natural blue-violet colorants violacein and deoxyviolacein and the utilization thereof” (Stiftung Alfred-Wegener-Institut fuer Polar- und …, priority 2000, dated 2011).

Turning to `O=C1NC(c2c[nH]c3ccc(O)cc23)=C/C1=C1\C(=O)Nc2ccccc21` [violacein, 3-[1,2-dihydro-5-(5-hydroxy-1H-indole-3-yl)-2-oxo-3-H-pyrrole-3-ylidene]-1,3-dihydro-2H-indole-2-on], the “solubility in organic solvents” value (in acetone, ethanol and dioxane) is “soluble”. Further, the solubility in water result (in water) was “practically insoluble”.
